Assay results published in patent US20230312652A1, “NOVEL PEPTIDES AND USES THEREOF” (Aarhus Universitet, priority 2020, published 2023).
Where a SMILES comes first, the peptide text is derived from it.

Tests used:
[1] = Stability in L-His buffer formulation with hyaluronidase; format: physicochemical; conditions: up to 7 days
Description: Buffer solution containing 4.4 mM L-histidine, 140 mM NaCl, 0.2% w/V Tween 20 and 1500 IU/mL hyaluronidase was incubated with 1 mM P1 at −20° C., 4° C. and 25° C. for up to 7 days. LCMS was used to ascertain the amount of P1 remaining in the solutions.

[2] = Mouse brain homogenate binding; format: in vitro ADME; conditions: 2 μM
Description: (§1) Mouse brain homogenate was incubated with 2 μM of P1 or 7-Ethoxycoumarin (positive control of degradation). Enzymatic reactions were stopped at timepoints between 0-240 min and samples analysed by LCMS. For test with protease inhibitors, brain homogenate was pre-incubated for 30 minutes with protease inhibitors prior to incubation with P1. For brain homogenate binding, 2 μM of P1 or propranolol (positive control) were added to mouse brain homogenate and incubated at 37° C. for 30 minutes. To prepare the protein-free samples (F samples) to be used for unbound determination, an aliquot of the pre-incubated matrix containing test compound or control compound was transferred to ultracentrifuge tubes and subjected to ultracentrifugation at 37° C., 35000 rpm for 4 hrs. In parallel, brain homogenate was incubated for 4.5 hrs to determine total levels after incubation.

[3] = test system: GRN+/- hippocampal neurons; experiment: Lysosomal acidification in GRN+/- hippocampal neurons, LysoSensor DND-189; format: cell-based, mouse; conditions: 1 uM, 4 hours
Description: Primary hippocampal neurons from GRN+/− mice were seeded in an 8-well ibidi chamber pre-coated with Poly-I and laminin. 75,000 neurons were seeded pr. well. After 5 days in vitro the neurons were stimulated for 4, 8 or 24 hours with peptide P1 at 1 uM in neurobasal A with B27. After stimulation, the medium was changed to pre-warmed (37° C.) neurobasal A containing 1 uM of LysoSensor probe DND-189 (an acidotropic probes that accumulates in acidic organelles as the result of protonation) and incubated for 30 min. at 37° C. in a 5% C02 atmosphere. Hereafter, the media was changed to pre-warmed FluoroBrite Medium and the neurons were imaged in Olympus microscopy system. Pictures were taken of the lysosomes and processed using the ScanR imaging software to give fluorescence (intensity) of each lysosomal vesicle. The summed total intensity of all lysosomes was calculated and divided by the total number of neurons imaged yielding the total intensity of lysosomes per neuron. Student's t-test was used for statistical analysis.

[4] = Plasma, whole brain and cerebrospinal fluid concentrations after SC or IV injection, LC MS/MS; format: in vivo, mouse; conditions: for half-life: mouse, in vivo, read-out: T½ in brain (converted)
Description: 13 mg/kg and 52 mg/kg of P1 were either subcutaneously or intravenously injected in wild-type mice in either 4.38 mM L-His, 140 mM NaCl, 0.2% Tween-20 and 1500 IU hyaluronidase (for SC, pH 6.15) or saline (IV). Both plasma, whole brain and cerebrospinal fluid concentrations were validated at different timepoints of 0.25-4 hours by LC MS/MS.
We further explored whether delivery to the CSF and brain would be dose-dependent by the SC route. P1 (SEQ ID NO: 1) were subcutaneously injected in wild-type mice in different concentrations of 0-52 mg/kg in 4.38 mM L-His, 140 mM NaCl, 0.2% Tween-20 and 1500 IU hyaluronidase (pH 6.15). Levels of P1 were validated in both plasma, whole brain and cerebrospinal fluid after 15 min injection by LC MS/MS.
13 mg/kg of P1 (SEQ ID NO: 1) were subcutaneously injected in wild-type mice in different formulations in either PBS buffer, in buffer containing 4.38 mM L-His, 140 mM NaCl, 0.2% Tween-20 and 1500 IU hyaluronidase (pH 6.15) or in buffer with 4.38 mM L-His, 140 mM NaCl, 0.2% Tween-20. Levels of P1 were validated in both plasma and whole brain after 15 and 30 min. of injection by LC MS/MS.

[5] = Plasma binding, mouse plasma, ultracentrifugation; format: in vitro ADME
Description: For plasma binding, 2 μM P1 or Warfarin (positive control) were added to mouse or human plasma. After 30 minutes incubation at 37° C., samples where ultracentrifuged for 4 hours to generate protein-free samples for LCMS analysis. In parallel, plasma was incubated for 4.5 h to determine total levels after incubation. Plasma binding was calculated as % Bound=100*(1−F/T4.5), where F is concentration of free ligand and T4.5 is the concentration of total ligand after incubation.

[6] = Plasma stability, human plasma; format: in vitro ADME; conditions: 2 μM, 37° C.
Description: Mouse or human plasma were incubated with 2 μM of P1 (SEQ ID NO: 1) or propantheline bromide (positive control for degradation) and left at 37° C. At each time point, stop solution was added to precipitate the solution and after mixing and centrifugation, supernatant was used for LCMS analysis.

[7] = Mouse brain homogenate stability; format: in vitro ADME; conditions: 2 μM, read-out: T½ in brain homogenate
Description: as §1

[8] = 2 μM, up to 60 minutes
Description: S9 fractions from 5 different species were incubated with 2 μM P1 (SEQ ID NO: 1) or 7-Ethoxycoumarin (positive control for clearance) and necessary reactants for up to 60 minutes at 37° C. Reactions were stopped and samples were analysed by LCMS.

BDNF, TFEB and PGC1a = experiment: CREB-downstream target levels in wild-type cortical neurons; format: cell-based, mouse; conditions: 1 uM, 4 hours or 6 hours
Description: Cortical neurons were isolated from p0 wild-type mice and seeded in a density of 200,000 per well (24-well tray). After 7 days in vitro the neurons were stimulated with 1 uM P1 in neurobasal A media and incubated at 37° C. and 5% CO2 for 4 hours or 6 hours. Hereafter, the neurons were lysed in RIPA lysis buffer containing cOmplete cocktail protease inhibitor.

[9] = SC 0-52 mg/kg, 15 min after injection

In the case of `CSCC[C@@H]1NC(=O)[C@H](C(C)C)NC(=O)[C@H](CC(=O)O)NC(=O)[C@H](CCC(=O)O)NC(=O)[C@H](CCC(=O)O)NC(=O)[C@H](Cc2c[nH]cn2)NC(=O)[C@H](CCC(=O)O)NC(=O)[C@H](C(C)C)NC(=O)[C@@H]2CCCN2C(=O)[C@H](CCC(=O)O)NC(=O)[C@H]([C@@H](C)O)NC1=O` [Peptide P1, [MTEPVEHEEDV]] (cyclo(MTEPVEHEEDV)), the “stability in buffer (amount remaining, LCMS)” value ([1]; 1 mM P1, 4° C.) is reported as “no stability issues”, the “stability in buffer (amount remaining, LCMS)” value ([1]; 1 mM P1, 25° C.) is reported as “could affect stability after 4 days” and the “stability in buffer (amount remaining, LCMS)” value ([1]; 1 mM P1, −20° C.) is reported as “no stability issues”. The brain homogenate binding [2] was “less than 20%”, the “lysosomal intensity (lysosomal acidification)” value [3] was “lysosomal intensity was increased” and the “difference between L-His buffer with or without hyaluronidase” value ([4]; 13 mg/kg SC, plasma and whole brain, 15 and 30 min) was “no significant difference”. For the same compound, the “levels in plasma and whole brain in different formulations” value ([4]; 13 mg/kg SC, PBS, L-His buffer with or without hyaluronidase, 15 and 30 min) was “measurable in the plasma and brain in all formulations”, the maximal brain-plasma ratio ([4]; IV delivery) was 0.034 and the “levels in brain and CSF” value [4, 9] was “measurable in the brain and CSF at all concentrations”. The “levels in plasma, brain and CSF versus dose” value [4, 9] was “increased with the dosage”, the maximal brain-plasma ratio ([4]; SC delivery) was 0.032 and the half-life ([4]; IV delivery, saline) was 13.9 min. The half-life ([4]; SC delivery, L-His buffer with hyaluronidase) was 19 min, the plasma binding ([5]; 2 μM) was “very low plasma binding” and the fraction unbound at 30 min, 2 μM ([5]; read-out: compound unbound in plasma) was > 0.75. For the same compound, the half-life [6] was > 289 min, the half-life [7] was 245 min and the “clearance and stability in liver S9 fractions” value ([8]; 5 different species) was “low clearance and high stability”. For the same compound, the “stability in mouse and human S9 liver fractions” value ([8]; mouse and human) was “some stability is lost”, the BDNF level (BDNF, TFEB and PGC1a) was “upregulated” and the PGC1a level (BDNF, TFEB and PGC1a) was “upregulated”. For the same compound, the TFEB level (BDNF, TFEB and PGC1a) was “upregulated”.
